According to ChEMBL document CHEMBL1146805, “Carbonic anhydrase inhibitors. Inhibition of cytosolic isozyme XIII with aromatic and heterocyclic sulfonamides: a novel target for the drug design” (Bioorg Med Chem Lett, 2004):

These compounds were tested against Carbonic anhydrase 13 (Mus musculus, UniProt Q9D6N1).
Carbonic anhydrase 13, sequence (Q9D6N1 whole entry): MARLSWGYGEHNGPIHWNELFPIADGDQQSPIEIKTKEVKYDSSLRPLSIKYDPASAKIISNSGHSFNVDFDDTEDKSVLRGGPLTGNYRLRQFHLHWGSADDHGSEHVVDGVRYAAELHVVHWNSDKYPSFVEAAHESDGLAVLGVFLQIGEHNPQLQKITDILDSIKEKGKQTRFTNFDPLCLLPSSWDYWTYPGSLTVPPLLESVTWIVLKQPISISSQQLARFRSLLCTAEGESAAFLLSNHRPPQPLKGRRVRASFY
Description: Inhibitory activity against murine carbonic anhydrase XIII (mCA XIII) by using CO2 hydrase assay method

Row | Ki [nM] | Structure (SMILES)
1 | 1.9 | Nc1ccc(S(=O)(=O)NCc2ccc(S(N)(=O)=O)cc2)cc1
2 | 50 | Nc1ccc(S(N)(=O)=O)cc1I
3 | 2.4 | Nc1ccc(S(=O)(=O)Nc2ccc(S(N)(=O)=O)cc2)cc1
4 | 43 | Nc1ccccc1S(N)(=O)=O
5 | 54 | Nc1ccc(S(N)(=O)=O)cc1Br
6 | 50 | Nc1ccc(S(N)(=O)=O)cc1F
7 | 56 | Nc1ccc(S(N)(=O)=O)cc1Cl
8 | 1.3 | Nc1ccc(S(=O)(=O)NCCc2ccc(S(N)(=O)=O)cc2)cc1
9 | 41 | NCc1ccc(S(N)(=O)=O)cc1 [MAFENIDE]
10 | 32 | Nc1ccc(S(N)(=O)=O)cc1 [SULFANILAMIDE]

Row | Structure (SMILES) | Ki [nM]
11 | NCCc1ccc(S(N)(=O)=O)cc1 | 43
